From patent US20090023186A1, “USE OF VALPROIC ACID FOR ENHANCING PRODUCTION OF RECOMBINANT PROTEINS IN MAMMALIAN CELLS” (EXCELLGENE SA, priority 2007, published 2009) come the findings set out here.

Test [1] deals with CHO DG44 cells. The test is described as follows: Multiple VPA additions, IgG batch titer by ELISA (Example 3). Format: cell-based, Chinese Hamster. The following applies: day 10 after transfection. Here is the method: 10 million suspension-adapted HEK293E cells were resuspended in 0.5 ml of Ex-Cell 293 HEK 293 serum-free medium with 4 mmol/l L-glutamine (Cat. No. 14571C-[…]; Lot No. 6A0093; SAFC Biosciences, Lenexa, Kans., USA, “Ex-Cell” medium; note: “Ex-Cell” medium-as used herein-refers to a medium comprising 4 mmol/l L-glutamine) in a 50-ml filter tube each (TPP AG, Trasadingen, Switzerland; Cat. No. 87050, Lot 20050174). In a separate set, 10 million suspension-adapted CHO DG44 cells were resuspended in 0.5 ml of ProCHO5 serum-free medium with 4 mmol/[…] hypoxanthine and 0.194 g/l thymidine (BioWhittaker (Lonza), Belgium; Cat. No. BE12-[…]; Lot No. 7 MB0040; “ProCHO5” medium; note: “ProCHO5” medium-as used herein-refers to a medium comprising 4 mmol/[…] hypoxanthine and 0.194 g/l thymidine) in a 50-ml filter tube each (TPP AG, Trasadingen, Switzerland; Cat. No. 87050, Lot 20050174). Then 12.5 μg plasmid DNA at a concentration of 1 μg/μl was added in each tube with the following composition 50% (6.25 μg) p-LC (SEQ ID NO: 1) 50% (6.25 μg) p-HC (SEQ ID NO: 3). Plasmid p-LC comprises the genetic information for the production of the light chain of an IgG antibody, plasmid p-HC comprises the genetic information for the production of the heavy chain of an IgG antibody. The particular vector constructs used in the present invention can also be obtained from the inventors. The inventors can be contacted via e-mail at […]. […] In short, Goat anti-human kappa light chain IgG (Biosource) was used for coating the ELISA-plates, and with AP-conjugated goat anti-human gamma chain IgG (Biosource) the synthesized IgG1 was detected. […] Absorption was measured at 405 nm against 490 nm using a microplate reader (SPECTRAmaxTM340; Molecular Devices, Palo Alto, Calif., USA).
On the technique in general: ELISA stands for enzyme-linked immunosorbent assay.

Test [2] relates to HEK293E cells. The test is described as follows: Stable cell lines, IgG batch titer by ELISA (Example 5). Format: cell-based, Human. The settings on record: 4 mmol/l final VPA; stable mass culture; 5 days after VPA addition. The protocol: 20 million suspension-adapted HEK293E cells were resuspended in 1 ml of Ex-Cell 293 HEK 293 serum-free medium with 4 mmol/l L-glutamine (Cat. No. 14571C-1000M; Lot No. 6A0093; SAFC Biosciences, Lenexa, Kans., USA, “Ex-Cell” medium; note: “Ex-Cell” medium-as used herein-refers to a medium comprising 4 mmol/l L-glutamine) in a 50-ml filter tube each (TPP AG, Trasadingen, Switzerland; Cat. No. 87050, Lot 20050174). Then 50 μg plasmid DNA at a concentration of 1 μg/μl was added in each tube with the following composition 5% (2.5 μg) p-LC (SEQ ID NO: 1) 5% (2.5 μg) p-HC (SEQ ID NO: 3) 90% (45 μg) p-puro (SEQ ID NO: 13). Plasmid p-LC comprises the genetic information for the production of the light chain of an IgG antibody, plasmid p-HC comprises the genetic information for the production of the heavy chain of an IgG antibody, plasmid p-puro comprises the genetic information for the enzyme puromycin-N-acetyl-transferase, which is encoded by the pac gene, the puromycin resistance gene. […] In short, Goat anti-human kappa light chain IgG (Biosource) was used for coating the ELISA-plates, and with AP-conjugated goat anti-human gamma chain IgG (Biosource) the synthesized IgG1 was detected. […] Absorption was measured at 405 nm against 490 nm using a microplate reader (SPECTRAmaxTM340; Molecular Devices, Palo Alto, Calif., USA).

`CCCC(CCC)C(=O)O` [VPA, valproic acid]: the Batch titer in test [1] (0.5 mmol/l VPA at day 0) was found to be 35.8 mg/L; in test [1] (escalating dosage, 0.125 to 0.5 mmol/l in 0.125 mmol/l increments every other day), 37.9 mg/L. Further, the “batch titers, direct addition versus slowly increasing concentration” value in test [1] is “statistically not different”. In test [2], the “Batch titer HEK293E” value turned out to be 47.8 ± 4.8 mg/L.
